Measured values as given in patent publication EP4806891A1 (Kangbaida (Sichuan) Biotechnology Co., Ltd., priority 2023, dated 2025).

What follows are compounds tested against T1, HEK-Blue-hTLR9 cells (Homo sapiens, UniProt Q9NR96) (assay: HEK-Blue-hTLR9 cell inhibition assay). Details: ODN2006 1 µM, 16 h, OD 620 nm, read-out: TLR9 IC50.
T1 construct: expressed in transfected cells; host or cells: HEK-Blue-hTLR9 cells (HEK293-derived reporter line)
T1 sequence (Q9NR96 26-1032): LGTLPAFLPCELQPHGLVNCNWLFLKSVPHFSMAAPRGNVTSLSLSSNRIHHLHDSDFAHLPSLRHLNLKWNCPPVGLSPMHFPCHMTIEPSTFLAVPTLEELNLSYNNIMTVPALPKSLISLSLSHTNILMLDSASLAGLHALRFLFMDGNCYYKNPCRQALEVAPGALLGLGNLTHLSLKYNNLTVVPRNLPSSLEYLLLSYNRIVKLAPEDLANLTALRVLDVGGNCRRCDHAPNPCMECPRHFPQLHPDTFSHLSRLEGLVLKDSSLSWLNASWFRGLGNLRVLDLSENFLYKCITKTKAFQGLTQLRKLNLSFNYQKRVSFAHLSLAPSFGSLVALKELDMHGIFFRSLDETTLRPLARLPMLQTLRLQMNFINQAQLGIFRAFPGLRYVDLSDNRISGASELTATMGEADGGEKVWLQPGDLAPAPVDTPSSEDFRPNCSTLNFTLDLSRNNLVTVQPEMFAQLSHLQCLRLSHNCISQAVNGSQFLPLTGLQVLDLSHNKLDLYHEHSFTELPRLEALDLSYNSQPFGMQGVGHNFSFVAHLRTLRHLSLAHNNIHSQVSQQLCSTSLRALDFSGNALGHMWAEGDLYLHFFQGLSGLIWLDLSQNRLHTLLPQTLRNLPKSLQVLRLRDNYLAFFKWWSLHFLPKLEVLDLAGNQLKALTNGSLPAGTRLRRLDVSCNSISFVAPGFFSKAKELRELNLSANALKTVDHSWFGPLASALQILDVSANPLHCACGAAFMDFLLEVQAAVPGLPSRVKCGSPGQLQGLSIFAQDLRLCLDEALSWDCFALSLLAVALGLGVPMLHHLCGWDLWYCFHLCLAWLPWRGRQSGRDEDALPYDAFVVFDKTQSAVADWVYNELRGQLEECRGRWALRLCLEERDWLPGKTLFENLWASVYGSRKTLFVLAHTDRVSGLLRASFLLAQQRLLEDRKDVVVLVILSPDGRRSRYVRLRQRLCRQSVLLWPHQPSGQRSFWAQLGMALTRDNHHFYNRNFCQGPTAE
Assay type: cell-based
Description: HEK-Blue-hTLR7/8/9 cell inhibition assay
1. HEK-Blue-hTLR7/8 cells (1 × 10^4 cells/well) and HEK-Blue-hTLR9 cells (1.5 × 10^4 cells/well) were seeded in a 384-well cell culture plate, with a volume of 30 µL per well. The plate was incubated at 37°C in a 5% CO2 incubator for 4 h. 2. The compound was prepared with DMSO and diluted in DMEM medium to 10 concentrations (1:3 dilution), with final concentrations of 10000, 3333.3, 1111.1, 370.4, 123.5, 41.2, 13.7, 4.6, 1.5, and 0.5 nM; R848 was prepared with DMSO and diluted in DMEM medium, with final concentrations of 0.8 µM (HEK-Blue-hTLR7) and 3 µM (HEK-Blue-hTLR8); ODN2006 was prepared with endotoxin-free water and diluted in DMEM medium, with a final concentration of 1 µM. 3. Cells treated with DMSO were used as the blank control group, while cells treated solely with Resiquimod (R848) were used as the positive control group for HEK-Blue-hTLR7/8, and cells treated solely with ODN2006 were used as the positive control group for HEK-Blue-hTLR9. Cells treated with the test compound together with R848 or ODN2006 were used as the test group. Two parallel wells were set for each group and were placed at 37°C in a 5% CO2 incubator for incubation. 4. After being incubated for 4 h, the 384-well plate of HEK-Blue-hTLR7/8 was taken out from the incubator, and R848 alone or both R848 and the diluted compound were separately added into each well. The plate was placed at 37°C in a 5% CO2 incubator for incubation for 16 h; the 384-well plate of HEK-Blue-hTLR9 was taken out from the incubator, and ODN2006 alone or both ODN2006 and the diluted compound were added separately to each well. The plate was incubated at 37°C in a 5% CO2 incubator for 16 h. 5. After being incubated for 16 h, the 384-well plate was removed from the incubator and centrifuged at 1000 rpm for 1 minute. The optical density value of each well at 620 nm was measured using a multifunctional microplate reader. 6. The cell inhibition rate was calculated as (1-(OD620 test group-OD620 blank group)/(OD620 positive group-OD620 blank group))×100%, and the half maximal inhibitory concentration (IC50) was calculated through curve fitting. Table 1: Activity of the compounds of the present disclosure in HEK-Blue-hTLR7/8/9 cellular assays

Row | Structure (SMILES) | IC50
1 | CN1CCN(c2nnc([C@]34CN(c5ccc(C#N)c6ncccc56)C[C@@]3(C(F)(F)F)C4)o2)CC1 [Compound 1, 5-((1S,5R)-1-(5-(4-methylpiperazin-1-yl)-1,3,4-oxadiazol-2-yl)-5-(trifluoromethyl)-3-azabicyclo[3.1.0]hexan-3-yl)quinoline-8-carbonitrile] | > 10000 nM
2 | Cc1cc(N2CC3(c4nnc(C5CCN(C)CC5)o4)C[C@]3(C(F)(F)F)C2)c2cnn(C)c2n1 (stereo partly drawn) [Compound 2, 2-((5R)-3-(1,6-dimethyl-1H-pyrazolo[3,4-b]pyridin-4-yl)-5-(trifluoromethyl)-3-azabicyclo[3.1.0]hexan-1-yl)-5-(1-methylpiperidin-4-yl)-1,3,4-oxadiazole] | > 10000 nM
3 | FC(F)(F)c1ccc(N2C[C@]3(c4nnc(C5(F)CCNCC5)o4)C[C@]3(C(F)(F)F)C2)c2cccnc12 [Compound 3, 2-(4-fluoropiperidin-4-yl)-5-((1S,5R)-5-(trifluoromethyl)-3-(8-(trifluoromethyl)quinolin-5-yl)-3-azabicyclo[3.1.0]hexan-1-yl)-1,3,4-oxadiazole] | > 1000 nM
4 | CN1CC(c2nnc([C@]34CN(c5ccc(C(F)(F)F)c6ncccc56)C[C@@]3(C(F)(F)F)C4)o2)C1 [Compound 4, 2-(1-methylazetidin-3-yl)-5-((1S,5R)-5-(trifluoromethyl)-3-(8-(trifluoromethyl)quinolin-5-yl)-3-azabicyclo[3.1.0]hexan-1-yl)-1,3,4-oxadiazole] | > 1000 nM
5 | CN1CCC(c2nnc([C@]34CN(c5ccc(C#N)c6ncccc56)C[C@@]3(C(F)(F)F)C4)n2C)CC1 [Compound 5, 5-((1S,5R)-1-(4-methyl-5-(1-methylpiperidin-4-yl)-4H-1,2,4-triazol-3-yl)-5-(trifluoromethyl)-3-azabicyclo[3.1.0]hexan-3-yl)quinoline-8-carbonitrile] | > 1000 nM
6 | CN1CCC(Nc2nnc([C@]34CN(c5ccc(C#N)c6ncccc56)C[C@@]3(C(F)(F)F)C4)o2)CC1 [Compound 6, 5-((1S,5R)-1-(5-((1-methylpiperidin-4-yl)amino)-1,3,4-oxadiazol-2-yl)-5-(trifluoromethyl)-3-azabicyclo[3.1.0]hexan-3-yl)quinoline-8-carbonitrile] | > 1000 nM
7 | N#Cc1ccc(N2C[C@]3(c4nnc(N)o4)C[C@]3(C(F)(F)F)C2)c2cccnc12 [Compound 7, 5-((1S,5R)-1-(5-amino-1,3,4-oxadiazol-2-yl)-5-(trifluoromethyl)-3-azabicyclo[3.1.0]hexan-3-yl)quinoline-8-carbonitrile] | > 10000 nM
8 | CN1CCC(C)(c2nnc([C@]34CN(c5ccc(C#N)c6ncccc56)C[C@@]3(C(F)(F)F)C4)o2)CC1 [Compound 8, 5-((1S,5R)-1-(5-(1,4-dimethylpiperidin-4-yl)-1,3,4-oxadiazol-2-yl)-5-(trifluoromethyl)-3-azabicyclo[3.1.0]hexan-3-yl)quinoline-8-carbonitrile] | > 1000 nM
9 | CN1CCC(c2nnc([C@]34CN(c5ccc(C#N)c6ncccc56)C[C@@]3(C(F)(F)F)C4)[nH]2)CC1 [Compound 9, 5-((1S,5R)-1-(5-(1-methylpiperidin-4-yl)-4H-1,2,4-triazol-3-yl)-5-(trifluoromethyl)-3-azabicyclo[3.1.0]hexan-3-yl)quinoline-8-carbonitrile] | > 1000 nM
10 | CN1[C@@H]2CC[C@H]1C[C@H](c1nnc([C@]34CN(c5ccc(C#N)c6ncccc56)C[C@@]3(C(F)(F)F)C4)o1)C2 [Compound 11, 5-((1S,5R)-1-(5-((1R,3S,5S)-8-methyl-8-azabicyclo[3.2.1]octan-3-yl)-1,3,4-oxadiazol-2-yl)-5-(trifluoromethyl)-3-azabicyclo[3.1.0]hexan-3-yl)quinoline-8-carbonitrile] | > 1000 nM
11 | N#Cc1ccc(N2C[C@]3(c4nnc(C5CCOCC5)o4)C[C@]3(C(F)(F)F)C2)c2cccnc12 [Compound 12, 5-((1S,5R)-1-(5-(tetrahydro-2H-pyran-4-yl)-1,3,4-oxadiazol-2-yl)-5-(trifluoromethyl)-3-azabicyclo[3.1.0]hexan-3-yl)quinoline-8-carbonitrile] | > 10000 nM
12 | CN1CC2(CCC(c3nnc([C@]45CN(c6ccc(C#N)c7ncccc67)C[C@@]4(C(F)(F)F)C5)o3)CC2)C1 [Compound 13, 5-((1S,5R)-1-(5-(2-methyl-2-azaspiro[3.5]nonan-7-yl)-1,3,4-oxadiazol-2-yl)-5-(trifluoromethyl)-3-azabicyclo[3.1.0]hexan-3-yl)quinoline-8-carbonitrile] | > 1000 nM
13 | CN1CC2CC1CC2c1nnc([C@]23CN(c4ccc(C#N)c5ncccc45)C[C@@]2(C(F)(F)F)C3)o1 (stereo partly drawn) [Compound 14, 5-((1S,5R)-1-(5-(2-methyl-2-azabicyclo[2.2.1]heptan-5-yl)-1,3,4-oxadiazol-2-yl)-5-(trifluoromethyl)-3-azabicyclo[3.1.0]hexan-3-yl)quinoline-8-carbonitrile] | > 1000 nM
14 | CN1CCC(Oc2nnc([C@]34CN(c5ccc(C#N)c6ncccc56)C[C@@]3(C(F)(F)F)C4)o2)CC1 [Compound 15, 5-((1S,5R)-1-(5-((1-methylpiperidin-4-yl)oxy)-1,3,4-oxadiazol-2-yl)-5-(trifluoromethyl)-3-azabicyclo[3.1.0]hexan-3-yl)quinoline-8-carbonitrile] | > 1000 nM
15 | N#Cc1ccc(N2C[C@]3(c4nnc(C5CCN(CC(N)=O)CC5)o4)C[C@]3(C(F)(F)F)C2)c2cccnc12 [Compound 17, 2-(4-(5-((1S,5R)-3-(8-cyanoquinolin-5-yl)-5-(trifluoromethyl)-3-azabicyclo[3.1.0]hexan-1-yl)-1,3,4-oxadiazol-2-yl)piperidin-1-yl)acetamide] | > 10000 nM
16 | N#Cc1ccc(N2C[C@]3(c4nnc(C5CC6(CNC6)C5)o4)C[C@]3(C(F)(F)F)C2)c2cccnc12 [Compound 18, 5-((1S,5R)-1-(5-(2-azaspiro[3.3]heptan-6-yl)-1,3,4-oxadiazol-2-yl)-5-(trifluoromethyl)-3-azabicyclo[3.1.0]hexan-3-yl)quinoline-8-carbonitrile] | < 1000 nM
17 | CN1CC2(CC(c3nnc([C@]45CN(c6ccc(C#N)c7ncccc67)C[C@@]4(C(F)(F)F)C5)o3)C2)C1 [Compound 19, 5-((1S,5R)-1-(5-(2-methyl-2-azaspiro[3.3]heptan-6-yl)-1,3,4-oxadiazol-2-yl)-5-(trifluoromethyl)-3-azabicyclo[3.1.0]hexan-3-yl)quinoline-8-carbonitrile] | > 1000 nM
18 | N#Cc1ccc(N2C[C@]3(c4nnc([C@H]5CC[C@H](N)CC5)o4)C[C@]3(C(F)(F)F)C2)c2cccnc12 [Compound 20, 5-((1S,5R)-1-(5-((1R,4S)-4-aminocyclohexyl)-1,3,4-oxadiazol-2-yl)-5-(trifluoromethyl)-3-azabicyclo[3.1.0]hexan-3-yl)quinoline-8-carbonitrile] | > 1000 nM
